# System: cellular H3K27 methylation
# Assay: Cellular H3K27 methylation assay (Western blot of H3K27me3 in HeLa cells)
# Format: cell-based
# Details: Homo sapiens, 72 h; HeLa cells, 3 days, H3K27me3 level by Western blot; read-out: PD IC50
row,Structure (SMILES),IC50
1,Fc1ccc2c(c1CNc1ncc(OC3COC3)c3nncn13)CCO2 [HJM-100],54.3 nM
2,Fc1ccc2c(c1CNc1ncc(C3CCCO3)c3nncn13)CCO2 (stereo not shown) [HJM-003],54.3 nM
3,O=C(CCC(F)(F)F)Nc1cnc(NCc2c(F)ccc3c2CCO3)n2cnnc12 [HJM-033],25.9 nM
4,Fc1ccc2c(c1CNc1ncc(OCCN3CCOCC3)c3nncn13)CCO2 [HJM-013],225 nM
5,CN1CC(COc2cnc(NCc3c(F)ccc4c3CCO4)n3cnnc23)C1 [HJM-116],550 nM
6,O=C(Nc1cnc(NCc2c(F)ccc3c2CCO3)n2cnnc12)C1CCC1 [HJM-035],53.6 nM
7,O=C1CCCCN1c1cnc(NCc2c(F)ccc3c2CCO3)n2cnnc12 [HJM-068],138 nM
8,CN1CCN(C(=O)Nc2cnc(NCc3c(F)ccc4c3CCO4)n3cnnc23)CC1 [HJM-097],792 nM
9,Cc1ncccc1COc1cnc(NCc2c(F)ccc3c2CCO3)n2cnnc12 [HJM-021],242 nM
10,CS(=O)(=O)Nc1cnc(NCc2c(F)ccc3c2CCO3)n2cnnc12 [HJM-065],363 nM
11,CN(CCN1CCOCC1)c1cnc(NCc2c(F)ccc3c2CCO3)n2cnnc12 [HJM-024],1110 nM
12,O=C(Nc1cnc(NCc2c(F)ccc3c2CCO3)n2cnnc12)N1CCOCC1 [HJM-099],1590 nM
13,O=C(Nc1cnc(NCc2c(F)ccc3c2CCO3)n2cnnc12)C1CCCOC1 (stereo not shown) [HJM-040],175 nM
14,O=C(COc1cnc(NCc2c(F)ccc3c2CCO3)n2cnnc12)C1CC1 [HJM-146],150 nM
15,CC(Oc1cnc(NCc2c(F)ccc3c2CCO3)n2cnnc12)c1cccnc1 (stereo not shown) [HJM-133],74.4 nM
16,O=C(CN1CCOCC1)Nc1cnc(NCc2c(F)ccc3c2CCO3)n2cnnc12 [HJM-032],317 nM
17,Fc1ccc2c(c1CNc1ncc(OCc3cnccn3)c3nncn13)CCO2 [HJM-132],123 nM
18,O=C(Nc1cnc(NCc2c(F)ccc3c2CCO3)n2cnnc12)c1ccncc1 [HJM-044],288 nM
19,[2H]C([2H])(Nc1ncc(OCC2CCOC2)c2nncn12)c1c(F)ccc2c1CCO2 (stereo not shown) [HJM-111],37.9 nM
20,Fc1ccc2c(c1CNc1ncc(C3CCCCC3)c3nncn13)CCO2 [HJM-051],167 nM
21,Cc1ccc(COc2cnc(NCc3c(F)ccc4c3CCO4)n3cnnc23)cn1 [HJM-130],104 nM
22,Fc1ccc2c(c1CNc1ncc(NCC3CC3)c3nncn13)CCO2 [HJM-022],284 nM
23,[2H]C([2H])([2H])N(C(=O)C1CC1)c1cnc(NCc2c(F)ccc3c2CCO3)n2cnnc12 [HJM-076],6.36 nM
24,CN1CCOC(C(=O)Nc2cnc(NCc3c(F)ccc4c3CCO4)n3cnnc23)C1 (stereo not shown) [HJM-086],188 nM
25,[2H]C([2H])(Nc1ncc(N(C(=O)C2CC2)C([2H])([2H])[2H])c2nncn12)c1c(F)ccc2c1CCO2 [HJM-078],12.1 nM
26,CC1COCCN1c1cnc(NCc2c(F)ccc3c2CCO3)n2cnnc12 (stereo not shown) [HJM-061],110 nM

row,Structure (SMILES),IC50
1,Fc1ccc2c(c1CNc1ncc(OCCOc3ccccc3)c3nncn13)CCO2 [HJM-126],92.1 nM
2,Fc1ccc2c(c1CNc1ncc(C3CCOC3)c3nncn13)CCO2 (stereo not shown) [HJM-054],31.1 nM
3,CN1CC(Oc2cnc(NCc3c(F)ccc4c3CCO4)n3cnnc23)CC1=O (stereo not shown) [HJM-136],394 nM
4,COc1ccc(C(=O)Nc2cnc(NCc3c(F)ccc4c3CCO4)n3cnnc23)cn1 [HJM-091],291 nM
5,Fc1ccc2c(c1CNc1nccc3nncn13)CCO2 [HJM-001],484 nM
6,O=C1CCN(c2cnc(NCc3c(F)ccc4c3CCO4)n3cnnc23)CC1 [HJM-064],180 nM
7,CC(C)C(=O)Nc1cnc(NCc2c(F)ccc3c2CCO3)n2cnnc12 [HJM-071],72.8 nM
8,COc1cccc(F)c1CNc1ncc(CCc2cccnc2C)c2nncn12 [HJM-047],7000 nM
9,Fc1ccc2c(c1CNc1ncc(C3CCN(C4COC4)CC3)c3nncn13)CCO2 [HJM-060],141 nM
10,COc1cccc(F)c1CNc1ncc(/C=C/c2cccnc2C)c2nncn12 [HJM-046],2000 nM
11,Fc1ccc2c(c1CNc1ncc(OCc3ccccn3)c3nncn13)CCO2 [HJM-142],39.7 nM
12,CCCN(C(=O)C1CC1)c1cnc(NCc2c(F)ccc3c2CCO3)n2cnnc12 [HJM-080],35 nM
13,COC1CCC(Oc2cnc(NCc3c(F)ccc4c3CCO4)n3cnnc23)CC1 (stereo not shown) [HJM-122],54.9 nM
14,O=C(Nc1cnc(NCc2c(F)ccc3c2CCO3)n2cnnc12)C1CCCC1 [HJM-036],160 nM
15,O=C(c1cnc(NCc2c(F)ccc3c2CCO3)n2cnnc12)N1CCC1 [HJM-153],93.2 nM
16,O=C(NCCOc1cnc(NCc2c(F)ccc3c2CCO3)n2cnnc12)C1CC1 [HJM-147],95.3 nM
17,[2H]C([2H])(Nc1ncc(OC2CCOCC2)c2nncn12)c1c(F)ccc2c1CCO2 [HJM-110],32.8 nM
18,Fc1ccc2c(c1CNc1ncc(OCc3cncnc3)c3nncn13)CCO2 [HJM-131],130 nM
19,O=C(c1cnc(NCc2c(F)ccc3c2CCO3)n2cnnc12)N1CCCCC1 [HJM-028],95.3 nM
20,CC(=O)Nc1cnc(NCc2c(F)ccc3c2CCO3)n2cnnc12 [HJM-069],391 nM
21,[2H]C([2H])(Nc1ncc(OCC2COC2)c2nncn12)c1c(F)ccc2c1CCO2 [HJM-109],24.7 nM
22,"Fc1ccc2c(c1CNc1ncc(C3CCCCO3)c3nncn13)CCO2 (stereo not shown) [HJM-004, N-((5-fluoro-2,3-dihydrobenzofuran-4-yl)methyl)-8-(tetrahydro-2H-pyran-2-yl)-[1,2,4]triazolo[4,3-c]pyrimidin-5-amine]",140 nM
23,[2H]C([2H])(Nc1ncc(OC([2H])([2H])C2COC2)c2nncn12)c1c(F)ccc2c1CCO2 [HJM-112],29.4 nM
24,CNC(=O)COc1cnc(NCc2c(F)ccc3c2CCO3)n2cnnc12 [HJM-148],1090 nM
25,COc1cccc(F)c1CNc1ncc(Oc2cccnc2C)c2nncn12 [HJM-048],1620 nM
26,OCCN1CCC(c2cnc(NCc3c(F)ccc4c3CCO4)n3cnnc23)CC1 [HJM-058],131 nM

row,Structure (SMILES),IC50
1,COCCN(C)CC(=O)Nc1cnc(NCc2c(F)ccc3c2CCO3)n2cnnc12 [HJM-085],62.5 nM
2,O=C(Nc1cnc(NCc2c(F)ccc3c2CCO3)n2cnnc12)c1ccno1 [HJM-096],89.9 nM
3,O[C@H]1CC[C@H](COc2cnc(NCc3c(F)ccc4c3CCO4)n3cnnc23)CC1 [HJM-125],463 nM
4,[2H]C([2H])(Oc1cnc(NCc2c(F)ccc3c2CCO3)n2cnnc12)C1COC1 [HJM-113],59.7 nM
5,Fc1ccc2c(c1CNc1ncc(OC(F)F)c3nncn13)CCO2 [HJM-150],38.5 nM
6,CN(CC1CC1)C(=O)Nc1cnc(NCc2c(F)ccc3c2CCO3)n2cnnc12 [HJM-098],309 nM
7,COC1CCN(c2cnc(NCc3c(F)ccc4c3CCO4)n3cnnc23)C1 (stereo not shown) [HJM-063],684 nM
8,COC1CCC(COc2cnc(NCc3c(F)ccc4c3CCO4)n3cnnc23)CC1 (stereo not shown) [HJM-123],132 nM
9,O=C(N1CCC(c2cnc(NCc3c(F)ccc4c3CCO4)n3cnnc23)CC1)C(F)(F)F [HJM-056],12.8 nM
10,COc1ccc(C(=O)Nc2cnc(NCc3c(F)ccc4c3CCO4)n3cnnc23)cc1 [HJM-090],198 nM
11,Fc1ccc2c(c1CNc1ncc(OCC3CC3(F)F)c3nncn13)CCO2 (stereo not shown) [HJM-108],126 nM
12,Fc1ccc2c(c1CNc1ncc(N3CCC(F)(F)C3)c3nncn13)CCO2 [HJM-062],445 nM
13,O=C(Nc1cnc(NCc2c(F)ccc3c2CCO3)n2cnnc12)C1CCOCC1 [HJM-041],334 nM
14,COCCC(=O)Nc1cnc(NCc2c(F)ccc3c2CCO3)n2cnnc12 [HJM-034],99.5 nM
15,Fc1ccc2c(c1CNc1ncc(OC3CCOC3)c3nncn13)CCO2 (stereo not shown) [HJM-018],59.2 nM
16,CCC(=O)Nc1cnc(NCc2c(F)ccc3c2CCO3)n2cnnc12 [HJM-070],83.1 nM
17,O=C(Nc1cnc(NCc2c(F)ccc3c2CCO3)n2cnnc12)C1CCCCO1 (stereo not shown) [HJM-039],67.2 nM
18,O=C(CCc1ccccc1)Nc1cnc(NCc2c(F)ccc3c2CCO3)n2cnnc12 [HJM-089],256 nM
19,CN1CCCC(c2cnc(NCc3c(F)ccc4c3CCO4)n3cnnc23)C1 (stereo not shown) [HJM-053],28.8 nM
20,CCN(CC)C(=O)c1cnc(NCc2c(F)ccc3c2CCO3)n2cnnc12 [HJM-026],75.6 nM
21,Fc1ccc2c(c1CNc1ncc(OCCn3ccnc3)c3nncn13)CCO2 [HJM-144],71.7 nM
22,Fc1ccc2c(c1CNc1ncc(C3CCN(CC(F)(F)F)CC3)c3nncn13)CCO2 [HJM-057],40.5 nM
23,O=C(Nc1cnc(NCc2c(F)ccc3c2CCO3)n2cnnc12)c1ncco1 [HJM-095],178 nM
24,COc1cccc(F)c1CNc1ncc(/C=C/CN2CCCCC2)c2nncn12 [HJM-049],296 nM
25,O=C(CO)Nc1cnc(NCc2c(F)ccc3c2CCO3)n2cnnc12 [HJM-075],690 nM
26,Fc1ccc2c(c1CNc1ncc(/C=C/CN3CCOCC3)c3nncn13)CCO2 [HJM-007],49.9 nM

# Same assay, conditions: Homo sapiens, HeLa, 72 h, read-out: PD IC50
row,Structure (SMILES),IC50
1,O=C(Nc1cnc(NCc2c(F)ccc3c2CCO3)n2cnnc12)c1cccnc1 [HJM-043],115 nM

# System: WSU-DLCL2 cells
# Assay: Cell proliferation assay, WSU-DLCL2
# Format: cell-based
# Details: Homo sapiens, WSUDLCL2; WSU-DLCL2 cells, cultured to the 9th day; read-out: Anti-proliferation IC50
# Method: Human B-cell non-Hodgkin's lymphoma cells WSU-DLCL2, Karpas422 and Pfeiffer were cultured in cell culture flasks in a sterile incubator with 95% relative humidity and 5% CO2 at 37° C. The medium was RPMI-1640 (Gibco, product No. 31800022) containing 15% fetal bovine serum (FBS, Gibco, product No. 10099141) and 0.1% penicillin/streptomycin solution (P/S). In order to assay the effects of compounds on cell proliferation, cells in exponential growth phase were seeded into a 12-well plate (Nunc, product No. 150628) with 1 mL of medium per well, wherein WSU-DLCL2 and Karpas422 were seeded at a density of 1×10^5 cells/well, and Pfeiffer was seeded at a density of 2×10^5 cells/well. At the same time, different concentrations of compounds were added to the wells that had seeded with cells (6 concentrations were set for each compound at 3-fold serial dilution), and the final concentration of DMSO was 0.1%. After that, the number of viable cells was determined by Vi-CELL (Beckman Coulter) for WSU-DLCL2 and Pfeiffer every 3 days, and for Karpas422 on days 4, 7, and 11, respectively. The cells counted each time were seeded into a new 12-well plate at the same density, and supplemented with fresh medium to 1 mL. Different concentrations of compounds were added at the same time. WSU-DLCL2 and Pfeiffer were cultured to the 9th day, and Karpas422 was cultured to the 14th day. Cell data were collected uniformly, and analyzed with GraphPad prisim5. Dose curves were fitted, and IC50 values of the assay compounds were obtained.
row,Structure (SMILES),IC50
1,Fc1ccc2c(c1CNc1ncc(OC3COC3)c3nncn13)CCO2 [HJM-100],54.8 nM
2,Fc1ccc2c(c1CNc1ncc(C3CCCO3)c3nncn13)CCO2 (stereo not shown) [HJM-003],131 nM
3,O=C(CCC(F)(F)F)Nc1cnc(NCc2c(F)ccc3c2CCO3)n2cnnc12 [HJM-033],94.7 nM

# — patent US12552796B2, “EED inhibitor, and preparation method therefor and use thereof” (SHANGHAITECH UNIVERSITY, priority 2019, dated 2026)
